The text below walks through data of PubChem BioAssay (NCI).

Test systems include UACC-257 melanoma; MCF7 breast; UACC-62 melanoma; MDA-MB-435; ACHN renal; K-562 leukemia; MOLT-4 leukemia; PC-3 prostate; NCI/ADR-RES ovarian; HS 578T breast.
Common to all, as to assay: growth of human tumour cells (NCI), 48 h

“And” between values parts separate entries of the source, which are not always exact repeats. Equal entries are not always repeated.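 Cultured in 96-well plates, cells were exposed to test compound for 48 hours across five concentrations. GI50: concentration for 50% inhibition of growth. TGI is the concentration that stops growth completely.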

Turning to `CN[C@@H](C)C(=O)N[C@H](C(=O)N1CCC[C@H]1c1nc(C(=O)c2ccc(F)cc2)cs1)C1CCCCC1`, the GI50 in the experiment with UACC-257 melanoma is 15.1 µM; in the experiment on MCF7 breast it was 16.1 µM; with UACC-62 melanoma it was 16.6 µM; in the experiment with MDA-MB-435 it was 16.3 µM; in the experiment on ACHN renal, 26.6 µM; with K-562 leukemia, 17 µM. The GI50 was 20 µM in the experiment on MOLT-4 leukemia, 24.1 µM with PC-3 prostate, 21.2 µM in the experiment on NCI/ADR-RES ovarian and 19 µM in the experiment with HS 578T breast. For the same compound, the TGI in the experiment on UACC-257 melanoma was 31.2 µM; in the experiment with MCF7 breast, 32.8 µM; in the experiment with UACC-62 melanoma, 35.2 µM; with MDA-MB-435 it was 40.6 µM; in the experiment with ACHN renal, over 100 µM; in the experiment on K-562 leukemia, 38.7 µM. The TGI with MOLT-4 leukemia is 57 µM; with PC-3 prostate it was over 73.6 µM; with NCI/ADR-RES ovarian, over 66 µM; with HS 578T breast it was 74.1 µM.
In the case of `C=C1C(=O)OC2CC1C(OC(=O)/C=C/c1ccccc1)C/C(C)=C/CC/C(C)=C/CCC2(C)O` (stereo not drawn), the TGI is 3.79 µM in the experiment on UACC-257 melanoma; 1.96 µM in the experiment with MCF7 breast; 4.51 µM in the experiment on UACC-62 melanoma; 3.76 µM in the experiment with MDA-MB-435; 3.08 µM in the experiment with ACHN renal; over 100 µM with K-562 leukemia. In addition, the TGI in the experiment with MOLT-4 leukemia is over 39.8 µM; in the experiment with PC-3 prostate, 3.22 µM; in the experiment with NCI/ADR-RES ovarian, 9.4 µM; with HS 578T breast, 5.94 µM.
Regarding `C[C@H]1C[C@@H](n2c(Nc3ccc(OC(F)(F)F)cc3)nc3cc(CCC(=O)O)ccc32)CC(C)(C)C1`, the GI50 was 16.6 µM in the experiment with UACC-257 melanoma; 6.29 µM in the experiment on MCF7 breast; 4.91 µM with UACC-62 melanoma; 10.4 µM in the experiment with MDA-MB-435; 13.1 µM in the experiment with ACHN renal; 11.9 µM in the experiment with K-562 leukemia. Besides, the GI50 in the experiment with MOLT-4 leukemia was 9.37 µM; in the experiment with PC-3 prostate, 11.9 µM; in the experiment with NCI/ADR-RES ovarian it was 11.7 µM; in the experiment on HS 578T breast, 10.5 µM. Also, the TGI in the experiment with UACC-257 melanoma was determined as 39.4 µM; in the experiment with MCF7 breast it was 22.6 µM; in the experiment with UACC-62 melanoma, 17.7 µM; in the experiment with MDA-MB-435 it was 22.9 µM; in the experiment with ACHN renal, 27.1 µM; with K-562 leukemia it was 37.7 µM. Moreover, the TGI with MOLT-4 leukemia came out at 32.6 µM; in the experiment on PC-3 prostate it was 27.9 µM; in the experiment with NCI/ADR-RES ovarian it was 27.5 µM; with HS 578T breast, 31.1 µM.
Turning to `CC(=O)CC[N+](C)(C)C`, the TGI in the experiment on UACC-257 melanoma was 54.6 µM; in the experiment on MCF7 breast, 64.8 µM; in the experiment on UACC-62 melanoma, 52.4 µM; with MDA-MB-435 it was 76.7 µM; in the experiment on ACHN renal, 26.5 µM; with K-562 leukemia it was 13.5 µM. Besides, the TGI in the experiment with MOLT-4 leukemia is 24.7 µM; in the experiment on PC-3 prostate, 99.5 µM; in the experiment on NCI/ADR-RES ovarian, over 76.9 µM; in the experiment with HS 578T breast, over 39.3 µM.
In the case of `COc1ccc(CCN2CCCn3c2nc2ccccc2c3=O)cc1`, the GI50 in the experiment on UACC-257 melanoma is over 100 µM; in the experiment on MCF7 breast, 0.0295 µM; with UACC-62 melanoma it was 0.185 µM; with MDA-MB-435 it was 0.022 µM; with ACHN renal it was 0.978 µM; in the experiment on K-562 leukemia, under 0.0205 µM. Moreover, the GI50 in the experiment with MOLT-4 leukemia was 0.0779 µM; with PC-3 prostate, 0.127 µM; in the experiment with NCI/ADR-RES ovarian, 0.0432 µM; with HS 578T breast it was 0.356 µM. For the same compound, the TGI is over 100 µM in the experiment with UACC-257 melanoma; over 100 µM with MCF7 breast; over 100 µM with UACC-62 melanoma; 0.061 µM in the experiment with MDA-MB-435; over 100 µM in the experiment with ACHN renal; over 100 µM in the experiment on K-562 leukemia. In addition, the TGI in the experiment on MOLT-4 leukemia, in the experiment with PC-3 prostate and in the experiment with HS 578T breast was over 100 µM in each case.
Regarding `COc1ccc2[nH]c3c(C)c4c(c(C)c3c2c1)CN(C)C=C4`, the TGI in the experiment on UACC-257 melanoma was 16.8 µM; in the experiment with MCF7 breast, over 100 µM; with UACC-62 melanoma it was 28.1 µM; in the experiment with MDA-MB-435, 71.2 µM; with ACHN renal it was 64 µM; in the experiment on K-562 leukemia, 46.5 µM. Further, the TGI in the experiment with MOLT-4 leukemia is 37.7 µM; in the experiment on PC-3 prostate, 81.3 µM; in the experiment on NCI/ADR-RES ovarian, over 100 µM; with HS 578T breast, 1.48 µM.
Consider `CCN1C(=O)N(CC)C2C1NN=c1s/c(=C3\C(=O)Nc4ccccc43)c(=O)n12` (stereo not drawn), for which the GI50 in the experiment with UACC-257 melanoma is 25.2 µM; with MCF7 breast it was 0.354 µM; with UACC-62 melanoma, 0.371 µM; in the experiment with MDA-MB-435, 0.147 µM; with ACHN renal it was 0.606 µM; in the experiment on K-562 leukemia, 0.343 µM. Moreover, the GI50 in the experiment with MOLT-4 leukemia is 0.549 µM; in the experiment with PC-3 prostate, 0.393 µM; in the experiment with NCI/ADR-RES ovarian it was 5.67 µM; in the experiment with HS 578T breast, 0.347 µM. The TGI is over 100 µM in the experiment with UACC-257 melanoma; over 89.7 µM in the experiment on MCF7 breast; 23.9 µM in the experiment with UACC-62 melanoma; 0.357 µM in the experiment on MDA-MB-435; over 47.6 µM in the experiment on ACHN renal; over 100 µM with K-562 leukemia. The TGI in the experiment with MOLT-4 leukemia was over 100 µM; in the experiment with PC-3 prostate it was over 100 µM; in the experiment on NCI/ADR-RES ovarian, over 100 µM; with HS 578T breast it was 17.7 µM.
`Cc1[nH]n(-c2nc(-c3ccccc3)cc(=O)[nH]2)c(=O)c1CCO`: the TGI with UACC-257 melanoma, in the experiment with MCF7 breast, with UACC-62 melanoma, with MDA-MB-435, in the experiment with ACHN renal and in the experiment on K-562 leukemia was over 100 µM throughout. Also, the TGI in the experiment with MOLT-4 leukemia, with PC-3 prostate, in the experiment with NCI/ADR-RES ovarian and with HS 578T breast was over 100 µM throughout.
For `CCc1nc(N)nc(N)c1C#CC(C)c1ccc(-c2ccncc2)cc1Cl` (stereo not drawn), the GI50 was 0.0286 µM and 0.0348 µM in the experiment on UACC-257 melanoma; 0.0144 µM and 0.0328 µM in the experiment on MCF7 breast; < 0.005 µM and 0.0186 µM with UACC-62 melanoma; 0.00775 µM and 0.0304 µM in the experiment on ACHN renal; under 0.005 µM in the experiment on K-562 leukemia; 0.0276 µM and 0.0493 µM in the experiment on MOLT-4 leukemia. Besides, the GI50 in the experiment on PC-3 prostate was under 0.005 µM; in the experiment on NCI/ADR-RES ovarian it was 0.0096 µM and 0.0366 µM; with HS 578T breast it was 0.687 µM and 2.25 µM. The TGI was 2.34 µM and 12.1 µM in the experiment with UACC-257 melanoma; 4.31 µM and 12.1 µM in the experiment on MCF7 breast; 4.39 µM and 10.9 µM in the experiment with UACC-62 melanoma; 4.85 µM and 14.3 µM in the experiment on MDA-MB-435; 4.57 µM and 13.7 µM in the experiment on ACHN renal; 28.5 µM and 15.2 µM with K-562 leukemia. For the same compound, the TGI was 4.62 µM and 8.45 µM in the experiment with MOLT-4 leukemia; 4.85 µM and 12.5 µM in the experiment on PC-3 prostate; 5.11 µM and 9.3 µM in the experiment with NCI/ADR-RES ovarian; 3.47 µM and 19.9 µM in the experiment on HS 578T breast.
In the case of `O=C(O)CCC(O)=C1S(=O)(=O)OCCOS1(=O)=O`, the TGI with UACC-257 melanoma, in the experiment on MCF7 breast, with UACC-62 melanoma, in the experiment on MDA-MB-435, with ACHN renal and in the experiment with K-562 leukemia was over 100 µM throughout. Moreover, the TGI in the experiment on MOLT-4 leukemia, with PC-3 prostate, in the experiment on NCI/ADR-RES ovarian and with HS 578T breast was over 100 µM throughout.
